# From patent publication US8791126B2, “2-alkynyl-N9-propargyladenine and medicinal use thereof” (Yamasa Corporation, priority 2010, dated 2014)
# Experiments:
# [1] = tested on: 6-OHDA-induced unilaterally substantia nigra lesioned rats; assay: 6-OHDA-induced unilaterally substantia nigra lesioned rats, contralateral rotation; format: in vivo, rat; details: oral, administered singly, observed 5 hours, versus KW-6002; FIGS. 5-7
# Method: 6-Hydroxydopamine (6-OHDA) is taken into neurons by dopamine reuptake transporters and acts as a neurotoxin, and is used for the selective denaturation and removal of dopaminergic neurons. This 6-OHDA was locally administered to the corpus striatum to induce the cell death of dopaminergic nerve and reduce dopamine, and thereby induce the symptoms of Parkinson's syndrome. In the study, 6-OHDA was injected into the right ventral tegmental area of male SD rats, 8-weeks old, and after 4 weeks, apomorphine (5 mg/kg, s.c.) was administered, and the animals which had shown a certain count of the counterclockwise rotation were selected. Using the model rats, the evaluation of the test compound as a therapeutic agent for Parkinson's syndrome was commenced.
# Male SD rats, 8-weeks old, were anesthetized with pentobarbital (50 mg/kg), and the hairs were removed broadly from the occiput through the back of the neck, and then an ear bar was attached thereto, and the rats were fixed in a brain stereotaxic apparatus. The skin of the head was incised 3 to 4 cm with a scalpel, the periosteum was stripped off to expose the skull and the suture was checked. […] 4 weeks after the 6-OHDA administration, apomorphine (5 mg/kg, s.c.) was administered, and the count of the counterclockwise rotation for 5 minutes was counted from 5 minutes after the administration. […]
# [2] = tested on: haloperidol-induced catalepsy; assay: Haloperidol-induced catalepsy; format: in vivo; details: male ddY mice, haloperidol 1 mg/kg i.p., compound oral 0.03-10 mg/kg 1 hour later, scored 1, 3, 5, 7 hours; FIGS. 2-4
# Method: Haloperidol is known to block dopamine receptors. This method is used generally as a method of evaluating the therapeutic effect of the therapeutic agents for Parkinson's syndrome, by using the effect of inducing catalepsy (when being made to take a certain posture or position of the limbs extrinsically, continuing to keep the posture as it is without willing to change it by oneself) caused by administration of haloperidol. The experiment was conducted by using 7 male ddY mice, 5-weeks old, per group. Haloperidol was suspended in 0.5% CMC, and then administered intraperitoneally to the mice at 1 mg/kg. In the study, as a test compound, the compounds each represented by the formula (4), the formula (5), the formula (10), the formula (11), the formula (12), the formula (13), or the formula (14) in the above synthesis examples were used, and as a positive control, KW-6002 (the test compound and KW-6002 were 0.03, 0.1, 0.3, 1, 3, 10 mg/kg) or L-DOPA (100 mg/kg)+benserazide (25 mg/kg) was used. The above 4 compounds were each suspended in 0.5% CMC, and orally administered to the mice 1 hour after the haloperidol administration. In addition, the case where only CMC was administered was designated as a control for the whole. After a lapse of 1, 3, 5, and 7 hours from the administration of the test compound, both forelimbs only, or both hindlimbs only, of a mouse were put in turn on an acrylic stand, height 4.5 cm, width 1.0 cm, and catalepsy was determined, and the state was scored as Table 2 below. [table]
# [3] = Photostability study in solid state; format: physicochemical; details: under a fluorescent light for 3 weeks, HPLC
# Method: Of the compounds of the present invention, the formula (4) compound, the formula (10) compound, and the formula (11) compound were evaluated for their photostability in solid state.
# The study was conducted in accordance with “Guideline for the Photostability Testing of New Drug Substances and Products.” That is, each compound in solid state was placed under a fluorescent light statically for 3 weeks, and the residual ratio was calculated from the HPLC analysis results before and after the placement.
# adenosine A2a receptor = target: T1, adenosine A2a receptor (Rattus norvegicus, UniProt P30543); assay: Adenosine A2a receptor antagonist activity by the Magnus method (excised femoral vein); format: cell-based; details: femoral vein of male Wistar rats, contracted with 10^−5 M serotonin, relaxed with 10^−7 M 2-octynyladenosine; FIG. 1
# T1 construct: the femoral vein was excised from male Wistar rats; from tissue; host or cells: femoral vein of male Wistar rats
# T1 sequence (P30543 whole entry): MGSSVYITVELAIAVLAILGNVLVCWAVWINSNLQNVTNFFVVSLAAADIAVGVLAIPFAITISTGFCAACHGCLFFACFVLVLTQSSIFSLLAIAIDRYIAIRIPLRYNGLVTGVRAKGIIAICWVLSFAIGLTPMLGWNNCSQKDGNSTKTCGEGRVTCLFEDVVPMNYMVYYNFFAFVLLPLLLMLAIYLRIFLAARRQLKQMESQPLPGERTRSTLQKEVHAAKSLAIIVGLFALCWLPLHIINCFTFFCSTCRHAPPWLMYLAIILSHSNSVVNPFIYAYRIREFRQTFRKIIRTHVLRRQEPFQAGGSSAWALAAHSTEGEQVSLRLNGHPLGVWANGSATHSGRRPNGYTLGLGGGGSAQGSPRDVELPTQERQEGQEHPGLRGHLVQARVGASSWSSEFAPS
# Method: In order to clarify the adenosine A2a receptor antagonist activity of the compound of the present invention, an evaluation by the Magnus method was conducted. The Magnus method is a method of evaluating the action of drugs using muscle contraction/relaxation as an index, and is used generally as a method for determining the antagonist activity.
# In the evaluation, firstly, the femoral vein was excised from male Wistar rats. A Krebs-Henseleit solution aerated with O2 gas was filled in an organ bath and kept at 37° C., and the excised femoral vein was suspended therein under 0.5 g of resting tension. The contractile and relaxing response was determined via a pickup transducer.
# In order to check the reactivity of the compound, firstly, the test compound was added dropwise in the organ bath. 10 minutes after the dropwise addition, serotonin was added dropwise in the organ bath such that the concentration thereof was 10^−5 M, to make the femoral vein contract. In a state where the contractile response was stable, 10^−7 M of an adenosine A2a receptor agonist, 2-octynyladenosine was administered to induce the relaxing response, and the inhibitory effect of the compound of the present invention and a positive control on the relaxing response was evaluated. Note that, in the representation of the results, the degree of the contraction at the time of addition of each substance was calculated, on condition that the degree of the relaxation when the compound of the present invention and the positive control were not added dropwise at all was designated as a control for the whole, and the degree of the relaxation for the control for the whole was set to be 100%.
# As a compound of the present invention, the formula (3) compound, the formula (4) compound, the formula (5) compound, the formula (9) compound, and the formula (10) compound, which were described in the synthesis examples, were used. Note that the formula (9) compound is a publicly-known compound which has already been described in Patent Literature 2. In addition, as a positive control, 8-[(E)-2-(3,4-dimethoxyphenyl)vinyl]-1,3-diethyl-7-methyl-3,7-dihydro-1H-purin-2,6-dione (KW-6002) described in Patent Literature 1, which is an adenosine A2a receptor antagonist which has conventionally been deemed to have an effect on the treatment of Parkinson's syndrome, and the compound of the following formula (hereinafter referred to as “AT-compound”), which is shown in Patent Literature 3, compound No. 9 in [Table A], were used.
# [4] = target: human adenosine A2a receptor (Homo sapiens, UniProt P29274); assay: Binding assay to human adenosine A2a receptor
# Sequence of human adenosine A2a receptor (P29274 whole entry): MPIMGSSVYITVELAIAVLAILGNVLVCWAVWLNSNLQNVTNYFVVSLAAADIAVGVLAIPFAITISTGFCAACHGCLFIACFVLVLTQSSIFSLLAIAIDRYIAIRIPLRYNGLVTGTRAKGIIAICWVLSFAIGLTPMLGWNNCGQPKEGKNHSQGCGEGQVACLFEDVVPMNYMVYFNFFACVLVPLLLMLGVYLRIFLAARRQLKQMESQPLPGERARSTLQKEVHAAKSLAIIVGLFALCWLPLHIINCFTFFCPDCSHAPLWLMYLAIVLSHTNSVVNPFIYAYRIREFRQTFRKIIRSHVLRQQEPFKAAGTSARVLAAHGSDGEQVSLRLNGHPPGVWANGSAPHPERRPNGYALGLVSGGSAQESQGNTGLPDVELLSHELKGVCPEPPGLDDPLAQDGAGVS
# Method: In order to clarify the binding affinity of the compound of the present invention to a human adenosine A2a receptor, a binding assay for the human receptor and the compound of the present invention was conducted.
SMILES,count of the contralateral rotation [1],score of catalepsy (improving effect on haloperidol-induced catalepsy) [2],residual ratio [3],inhibition of the relaxing response of the femoral vein (adenosine A2a receptor antagonist activity) (adenosine A2a receptor),Ki [4]
"C#CCn1c(Br)nc2c(N)nc(C#CC3(O)CCCCC3)nc21 [formula (10) compound, 8-bromo-2-[2-(1-hydroxycyclohexyl)-1-ethyn-1-yl]-N^9-propargyladenine]",exhibit an effect which is stronger and continuously increase the count of the contralateral rotation,"kept the score of catalepsy low, with a smaller dose than that of KW-6002",98.8%,more potent activity,
"C#CCn1c(Cl)nc2c(N)nc(C#CCCCCCC)nc21 [formula (12) compound, 8-chloro-2-(1-octynyl)-N^9-propargyladenine]",,"exhibit an effect for a long time, with a smaller dose than that of the positive control KW-6002",,,
"C#CCn1c(-n2nccn2)nc2c(N)nc(C#CCCCCCC)nc21 [formula (14) compound, 8-(1,2,3-triazol-2-yl)-2-(1-octynyl)-N^9-propargyladenine]",,"exhibit an effect for a long time, with a smaller dose than that of the positive control KW-6002",,,
"C#CCn1c(Cl)nc2c(N)nc(C#CC3(O)CCCCC3)nc21 [formula (13) compound, 8-chloro-2-[2-(1-hydroxycyclohexyl)-1-ethyn-1-yl]-N^9-propargyladenine]",,"exhibit an effect for a long time, with a smaller dose than that of the positive control KW-6002",,,
"C#CCn1c(-c2ccco2)nc2c(N)nc(C#CCCCCCC)nc21 [formula (5) compound, 8-(2-furyl)-2-(1-octyn-1-yl)-N^9-propargyl-adenine]",,the catalepsy score was also kept low compared with that of L-DOPA or the formula (4) compound,,more potent activity,
"C#CCn1c(-c2ccco2)nc2c(N)nc(C#CC3(O)CCCCC3)nc21 [formula (11) compound, 8-(2-furyl)-2-[2-(1-hydroxycyclohexyl)-1-ethyn-1-yl]-N^9-propargyladenine]",,"exhibit an effect for a long time, with a smaller dose than that of the positive control KW-6002",100.2%,,
"C#CCn1cnc2c(N)nc(C#CCC3CCN(C(=O)Oc4ccc(C(=O)OC)cc4)CC3)nc21 [AT-compound, reference compound]",,,,no potent activity,
"C#CCn1c(Br)nc2c(N)nc(C#CCCCCCC)nc21 [formula (4) compound, 8-bromo-2-(1-octyn-1-yl)-N^9-propargyladenine]",exhibit an effect which is stronger and continuously increase the count of the contralateral rotation,"kept the score of catalepsy low, with a smaller dose than that of KW-6002",99.0%,more potent activity,581 pM
